Experiment: xn = mol fraction of the nth substance listed
Details: 101 kPa

Compound `O=C1CCCC1` + CC[n+]1ccn(C)c1.F[B-](F)(F)F has a speed of sound (293.15 K, x1 = 0.0877) of 1643.2 m/s, a speed of sound (293.15 K, x1 = 0.1164) of 1644.4 m/s and a speed of sound (293.15 K, x1 = 0.1767) of 1642 m/s. It also gave a speed of sound (293.15 K, x1 = 0.2302) of 1633.9 m/s, a speed of sound (293.15 K, x1 = 0.2879) of 1622.5 m/s and a speed of sound (293.15 K, x1 = 0.3887) of 1593.6 m/s. It also gave a speed of sound (293.15 K, x1 = 0.478) of 1562.8 m/s, a speed of sound (293.15 K, x1 = 0.5878) of 1522.6 m/s and a speed of sound (293.15 K, x1 = 0.6115) of 1513.9 m/s. The speed of sound (293.15 K, x1 = 0.6411) was 1503.2 m/s, the speed of sound (293.15 K, x1 = 0.7649) was 1462.6 m/s and the speed of sound (293.15 K, x1 = 0.7867) was 1456.3 m/s. For the same compound, the speed of sound (293.15 K, x1 = 0.9061) was 1427.6 m/s, the speed of sound (298.15 K, x1 = 0.0877) was 1628.4 m/s and the speed of sound (298.15 K, x1 = 0.1164) was 1629.3 m/s. For the same compound, the speed of sound (298.15 K, x1 = 0.1767) was 1625.9 m/s, the speed of sound (298.15 K, x1 = 0.2302) was 1619.2 m/s and the speed of sound (298.15 K, x1 = 0.2879) was 1606.5 m/s. For the same compound, the speed of sound (298.15 K, x1 = 0.3434) was 1592.4 m/s, the speed of sound (298.15 K, x1 = 0.3887) was 1578.2 m/s and the speed of sound (298.15 K, x1 = 0.5114) was 1533.8 m/s. It also gave a speed of sound (298.15 K, x1 = 0.5878) of 1504.6 m/s, a speed of sound (298.15 K, x1 = 0.6115) of 1495.8 m/s and a speed of sound (298.15 K, x1 = 0.6411) of 1485 m/s. It also gave a speed of sound (298.15 K, x1 = 0.6834) of 1469.2 m/s, a speed of sound (298.15 K, x1 = 0.7649) of 1441.6 m/s and a speed of sound (298.15 K, x1 = 0.7867) of 1435.4 m/s. The speed of sound (298.15 K, x1 = 0.8157) was 1427 m/s, the speed of sound (298.15 K, x1 = 0.8755) was 1412.3 m/s and the speed of sound (298.15 K, x1 = 0.9061) was 1406 m/s. The speed of sound (303.15 K, x1 = 0.0877) was 1615.4 m/s, the speed of sound (303.15 K, x1 = 0.1164) was 1615.2 m/s and the speed of sound (303.15 K, x1 = 0.1767) was 1611.6 m/s. It also gave a speed of sound (303.15 K, x1 = 0.3434) of 1577.1 m/s, a speed of sound (303.15 K, x1 = 0.478) of 1530.1 m/s and a speed of sound (303.15 K, x1 = 0.5114) of 1517.1 m/s. The speed of sound (303.15 K, x1 = 0.5878) was 1486.7 m/s, the speed of sound (303.15 K, x1 = 0.6115) was 1477.3 m/s and the speed of sound (303.15 K, x1 = 0.6411) was 1465.7 m/s. The speed of sound (303.15 K, x1 = 0.6834) was 1449.6 m/s, the speed of sound (303.15 K, x1 = 0.7649) was 1421.2 m/s and the speed of sound (303.15 K, x1 = 0.7867) was 1414.3 m/s. The speed of sound (303.15 K, x1 = 0.8157) was 1405.9 m/s, the speed of sound (303.15 K, x1 = 0.9061) was 1384.4 m/s and the speed of sound (308.15 K, x1 = 0.1164) was 1599.6 m/s. It also gave a speed of sound (308.15 K, x1 = 0.1767) of 1595.8 m/s, a speed of sound (308.15 K, x1 = 0.2302) of 1588.2 m/s and a speed of sound (308.15 K, x1 = 0.2879) of 1576.9 m/s. It also gave a speed of sound (308.15 K, x1 = 0.3434) of 1562.1 m/s, a speed of sound (308.15 K, x1 = 0.3887) of 1548 m/s and a speed of sound (308.15 K, x1 = 0.5114) of 1502.2 m/s. The speed of sound (308.15 K, x1 = 0.5878) was 1470.6 m/s, the speed of sound (308.15 K, x1 = 0.6115) was 1460.7 m/s and the speed of sound (308.15 K, x1 = 0.6411) was 1448.7 m/s. It also gave a speed of sound (308.15 K, x1 = 0.6834) of 1431.7 m/s, a speed of sound (308.15 K, x1 = 0.7649) of 1402.3 m/s and a speed of sound (308.15 K, x1 = 0.7867) of 1394.6 m/s. The speed of sound (308.15 K, x1 = 0.8157) was 1385.8 m/s, the speed of sound (308.15 K, x1 = 0.8755) was 1370.4 m/s and the speed of sound (308.15 K, x1 = 0.9061) was 1363.9 m/s.
`CC[n+]1ccn(C)c1.F[B-](F)(F)F` + O=C1CCCCC1 showed a speed of sound (293.15 K, x2 = 0.0789) of 1623.5 m/s, a speed of sound (293.15 K, x2 = 0.1407) of 1616.1 m/s and a speed of sound (293.15 K, x2 = 0.1861) of 1609.9 m/s. It also gave a speed of sound (293.15 K, x2 = 0.2271) of 1603 m/s, a speed of sound (293.15 K, x2 = 0.3069) of 1588.5 m/s and a speed of sound (293.15 K, x2 = 0.3898) of 1571.3 m/s. It also gave a speed of sound (293.15 K, x2 = 0.4269) of 1562.9 m/s, a speed of sound (293.15 K, x2 = 0.489) of 1548.9 m/s and a speed of sound (293.15 K, x2 = 0.5007) of 1545.9 m/s. It also gave a speed of sound (293.15 K, x2 = 0.5432) of 1535.6 m/s, a speed of sound (293.15 K, x2 = 0.6302) of 1514.1 m/s and a speed of sound (293.15 K, x2 = 0.7559) of 1483.3 m/s. It also gave a speed of sound (293.15 K, x2 = 0.779) of 1477.4 m/s, a speed of sound (293.15 K, x2 = 0.8235) of 1467.2 m/s and a speed of sound (293.15 K, x2 = 0.8675) of 1457 m/s. It also gave a speed of sound (293.15 K, x2 = 0.9001) of 1450.6 m/s, a speed of sound (298.15 K, x2 = 0.0789) of 1613.7 m/s and a speed of sound (298.15 K, x2 = 0.1407) of 1607.6 m/s. For the same compound, the speed of sound (298.15 K, x2 = 0.2271) was 1593.7 m/s, the speed of sound (298.15 K, x2 = 0.3898) was 1560.2 m/s and the speed of sound (298.15 K, x2 = 0.5007) was 1532.4 m/s. The speed of sound (298.15 K, x2 = 0.6302) was 1499.3 m/s, the speed of sound (298.15 K, x2 = 0.6848) was 1484.9 m/s and the speed of sound (298.15 K, x2 = 0.7559) was 1467.5 m/s. It also gave a speed of sound (298.15 K, x2 = 0.779) of 1461.4 m/s, a speed of sound (298.15 K, x2 = 0.8235) of 1450.9 m/s and a speed of sound (298.15 K, x2 = 0.8675) of 1440.8 m/s. The speed of sound (298.15 K, x2 = 0.9001) was 1433.9 m/s, the speed of sound (303.15 K, x2 = 0.0789) was 1602.6 m/s and the speed of sound (303.15 K, x2 = 0.1407) was 1595.3 m/s. It also gave a speed of sound (303.15 K, x2 = 0.1861) of 1587.8 m/s, a speed of sound (303.15 K, x2 = 0.2271) of 1580.5 m/s and a speed of sound (303.15 K, x2 = 0.2765) of 1570.4 m/s. It also gave a speed of sound (303.15 K, x2 = 0.3069) of 1563.6 m/s, a speed of sound (303.15 K, x2 = 0.3898) of 1543.8 m/s and a speed of sound (303.15 K, x2 = 0.4269) of 1534.4 m/s. The speed of sound (303.15 K, x2 = 0.489) was 1518.4 m/s, the speed of sound (303.15 K, x2 = 0.5007) was 1515 m/s and the speed of sound (303.15 K, x2 = 0.5432) was 1503.3 m/s. For the same compound, the speed of sound (303.15 K, x2 = 0.6302) was 1480.2 m/s, the speed of sound (303.15 K, x2 = 0.6848) was 1465.9 m/s and the speed of sound (303.15 K, x2 = 0.779) was 1441.7 m/s. The speed of sound (303.15 K, x2 = 0.8235) was 1431.5 m/s, the speed of sound (303.15 K, x2 = 0.9001) was 1414.6 m/s and the speed of sound (308.15 K, x2 = 0.1407) was 1581 m/s. For the same compound, the speed of sound (308.15 K, x2 = 0.1861) was 1573.9 m/s, the speed of sound (308.15 K, x2 = 0.2271) was 1565.6 m/s and the speed of sound (308.15 K, x2 = 0.3898) was 1527.9 m/s. For the same compound, the speed of sound (308.15 K, x2 = 0.4269) was 1518.2 m/s, the speed of sound (308.15 K, x2 = 0.489) was 1501.3 m/s and the speed of sound (308.15 K, x2 = 0.5007) was 1498.2 m/s. It also gave a speed of sound (308.15 K, x2 = 0.5432) of 1486.5 m/s, a speed of sound (308.15 K, x2 = 0.6302) of 1462.4 m/s and a speed of sound (308.15 K, x2 = 0.6848) of 1447.8 m/s. The speed of sound (308.15 K, x2 = 0.7559) was 1428.7 m/s, the speed of sound (308.15 K, x2 = 0.779) was 1423.1 m/s and the speed of sound (308.15 K, x2 = 0.8235) was 1412.3 m/s. For the same compound, the speed of sound (308.15 K, x2 = 0.9001) was 1395 m/s.
